From PubChem BioAssay AID328 (DTP/NCI, 2004)
Where “and” joins values, the source holds several entries; their conditions need not be identical. Equal values may be shown once. Inconclusive results and toxic doses are left out.

System: BDF1 mice, P388 leukemia ip, median survival T/C
Assay: NCI In Vivo Anticancer Drug Screen. Data for tumor model P388 Leukemia (intraperitoneal) in B6D2F1 (BDF1) mice
Conditions: endpoint: median survival time, higher = longer survival
Summary of the method: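 T/C = treated-group survival ÷ vehicle-control survival; tumour transplanted into mice before dosing.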

[1] = dose: 100.0 mg/kg/injection, schedule: Q01DX001 (ip), vehicle: saline with Tween-80
[2] = dose: 200.0 mg/kg/injection, schedule: Q01DX001 (ip), vehicle: saline with Tween-80
[3] = dose: 25.0 mg/kg/injection, schedule: Q01DX009 (ip), vehicle: saline with Tween-80
[4] = dose: 50.0 mg/kg/injection, schedule: Q01DX009 (ip), vehicle: saline with Tween-80
[5] = dose: 75.0 mg/kg/injection, schedule: Q04DX003 (ip), vehicle: saline with Tween-80
[6] = dose: 100.0 mg/kg/injection, schedule: Q01DX009 (ip), vehicle: saline with Tween-80
[7] = dose: 100.0 mg/kg/injection, schedule: Q04DX003 (ip), vehicle: saline with Tween-80
[8] = dose: 200.0 mg/kg/injection, schedule: Q04DX003 (ip), vehicle: saline with Tween-80
[9] = dose: 300.0 mg/kg/injection, schedule: Q04DX003 (ip), vehicle: saline with Tween-80
[10] = dose: 25.0 mg/kg/injection, schedule: Q01DX009 (ip), vehicle: Klucel (hydroxypropylcellulose) (HPC)
[11] = dose: 50.0 mg/kg/injection, schedule: Q01DX009 (ip), vehicle: Klucel (hydroxypropylcellulose) (HPC)
[12] = dose: 100.0 mg/kg/injection, schedule: Q01DX009 (ip), vehicle: Klucel (hydroxypropylcellulose) (HPC)
[13] = dose: 200.0 mg/kg/injection, schedule: Q01DX009 (ip), vehicle: Klucel (hydroxypropylcellulose) (HPC)
[14] = dose: 400.0 mg/kg/injection, schedule: Q01DX009 (ip), vehicle: Klucel (hydroxypropylcellulose) (HPC)

SMILES: NS(=O)(=O)CS(=O)(=O)Oc1ccccc1
- T/C [1]: 100 % of control
- T/C [2]: 99 % of control

SMILES: C[n+]1ccc2cc(-c3ccccc3)c3ccccc3c2c1
- T/C (dose: 0.06 mg/kg/injection, schedule: Q01DX009 (ip), vehicle: water): 100 % of control
- T/C (dose: 0.12 mg/kg/injection, schedule: Q01DX009 (ip), vehicle: water): 88 % of control
- T/C (dose: 0.25 mg/kg/injection, schedule: Q01DX009 (ip), vehicle: water): 89 % of control
- T/C (dose: 0.5 mg/kg/injection, schedule: Q01DX009 (ip), vehicle: water): 100 % of control
- T/C (dose: 1.0 mg/kg/injection, schedule: Q01DX009 (ip), vehicle: water): 100 % of control and 101 % of control
- T/C (dose: 2.0 mg/kg/injection, schedule: Q01DX009 (ip), vehicle: water): 101 % of control
- T/C (dose: 4.0 mg/kg/injection, schedule: Q01DX009 (ip), vehicle: water): 99 % of control

SMILES: CCNC(C)(C)C(S)c1ccc(Cl)s1 (stereo not given)
- T/C (dose: 12.5 mg/kg/injection, schedule: Q01DX009 (ip), vehicle: saline with Tween-80): 93 % of control
- T/C [3]: 93 % of control
- T/C (dose: 25.0 mg/kg/injection, schedule: Q04DX003 (ip), vehicle: saline with Tween-80): 101 % of control
- T/C [4]: 91 % of control and 104 % of control
- T/C (dose: 50.0 mg/kg/injection, schedule: Q04DX003 (ip), vehicle: saline with Tween-80): 91 % of control
- T/C [5]: 108 % of control
- T/C [6]: 94 % of control and 109 % of control
- T/C [7]: 114 % of control
- T/C [8]: 116 % of control

SMILES: CC1CCC2(C)CCC3(C)C(=CCC4C5(C)CCC(OC(=O)c6ccccc6)C(C)(C)C5CCC43C)C2C1C (stereo not given)
- T/C [5]: 100 % of control
- T/C (dose: 150.0 mg/kg/injection, schedule: Q04DX003 (ip), vehicle: saline with Tween-80): 100 % of control
- T/C [9]: 105 % of control

SMILES: CO[C@@]12[C@H](COC(N)=O)C3=C(C(=O)C(C)=C(N)C3=O)N1C[C@@H]1N[C@@H]12
- T/C (dose: 0.03 mg/kg/injection, schedule: Q01DX010 (ip), vehicle: water): 100 % of control
- T/C (dose: 0.06 mg/kg/injection, schedule: Q01DX010 (ip), vehicle: saline): 123 % of control
- T/C (dose: 0.06 mg/kg/injection, schedule: Q01DX010 (ip), vehicle: water): 115 % of control
- T/C (dose: 0.13 mg/kg/injection, schedule: Q01DX010 (ip), vehicle: water): 168 % of control
- T/C (dose: 0.25 mg/kg/injection, schedule: Q01DX010 (ip), vehicle: saline): 159 % of control and 161 % of control
- T/C (dose: 0.25 mg/kg/injection, schedule: Q01DX010 (ip), vehicle: water): 200 % of control
- T/C (dose: 0.5 mg/kg/injection, schedule: Q01DX010 (ip), vehicle: saline): 166 % of control and 213 % of control
- T/C (dose: 0.5 mg/kg/injection, schedule: Q01DX010 (ip), vehicle: water): 242 % of control
- T/C (dose: 1.0 mg/kg/injection, schedule: Q01DX010 (ip), vehicle: saline): 250 % of control and 180 % of control
- T/C (dose: 1.0 mg/kg/injection, schedule: Q01DX010 (ip), vehicle: water): 215 % of control
- T/C (dose: 1.08 mg/kg/injection, schedule: Q04DX003 (ip), vehicle: saline): 194 % of control and 196 % of control
- T/C (dose: 1.8 mg/kg/injection, schedule: Q04DX003 (ip), vehicle: saline): 243 % of control and 222 % of control
- T/C (dose: 2.0 mg/kg/injection, schedule: Q01DX010 (ip), vehicle: saline): 90 % of control and 114 % of control
- T/C (dose: 2.0 mg/kg/injection, schedule: Q01DX010 (ip), vehicle: water): 105 % of control
- T/C (dose: 3.0 mg/kg/injection, schedule: Q04DX003 (ip), vehicle: saline): 236 % of control and 244 % of control
- T/C (dose: 4.0 mg/kg/injection, schedule: Q01DX001 (ip), vehicle: saline): 157 % of control
- T/C (dose: 5.0 mg/kg/injection, schedule: Q04DX003 (ip), vehicle: saline): 90 % of control and 112 % of control
- T/C (dose: 6.0 mg/kg/injection, schedule: Q01DX001 (ip), vehicle: saline): 176 % of control
- T/C (dose: 8.0 mg/kg/injection, schedule: Q01DX001 (ip), vehicle: saline): 176 % of control

SMILES: CCCCCOc1cc(C(C)=O)cc(OC)c1OC(=O)c1cc([N+](=O)[O-])cc([N+](=O)[O-])c1
- T/C [1]: 100 % of control
- T/C [2]: 90 % of control
- T/C (dose: 400.0 mg/kg/injection, schedule: Q01DX001 (ip), vehicle: saline with Tween-80): 90 % of control

SMILES: CCCCCCCCCCOP(=O)(O)OCCCCCCCCCC
- T/C (dose: 12.5 mg/kg/injection, schedule: Q01DX009 (ip), vehicle: Klucel (hydroxypropylcellulose) (HPC)): 95 % of control
- T/C [10]: 99 % of control
- T/C [11]: 95 % of control

SMILES: OCCN(CCO)c1cc(OCc2ccccc2)cc(OCc2ccccc2)c1
- T/C (dose: 6.25 mg/kg/injection, schedule: Q01DX009 (ip), vehicle: water): 103 % of control
- T/C (dose: 12.5 mg/kg/injection, schedule: Q01DX009 (ip), vehicle: water): 99 % of control
- T/C (dose: 25.0 mg/kg/injection, schedule: Q01DX009 (ip), vehicle: water): 91 % of control and 103 % of control
- T/C (dose: 50.0 mg/kg/injection, schedule: Q01DX009 (ip), vehicle: water): 100 % of control
- T/C (dose: 50.0 mg/kg/injection, schedule: Q04DX003 (ip), vehicle: water): 100 % of control
- T/C (dose: 100.0 mg/kg/injection, schedule: Q04DX003 (ip), vehicle: water): 100 % of control
- T/C (dose: 200.0 mg/kg/injection, schedule: Q04DX003 (ip), vehicle: water): 95 % of control
- T/C (dose: 400.0 mg/kg/injection, schedule: Q04DX003 (ip), vehicle: water): 100 % of control

SMILES: O=C(O)c1cc(B(O)O)[nH]n1
- T/C (dose: 50.0 mg/kg/injection, schedule: Q01DX001 (ip), vehicle: saline sonified): 104 % of control
- T/C (dose: 100.0 mg/kg/injection, schedule: Q01DX001 (ip), vehicle: saline sonified): 100 % of control
- T/C (dose: 200.0 mg/kg/injection, schedule: Q01DX001 (ip), vehicle: saline sonified): 100 % of control

SMILES: O=C/C=C/c1cccc([N+](=O)[O-])c1
- T/C [3]: 110 % of control
- T/C [4]: 115 % of control
- T/C [6]: 119 % of control

SMILES: O=C1NC(c2cccc(OCc3ccccc3)c2)Nc2ccccc21 (stereo not given)
- T/C (dose: 3.13 mg/kg/injection, schedule: Q01DX009 (ip), vehicle: Klucel (hydroxypropylcellulose) (HPC)): 97 % of control
- T/C [10]: 94 % of control and 110 % of control
- T/C [11]: 108 % of control
- T/C (dose: 62.5 mg/kg/injection, schedule: Q01DX009 (ip), vehicle: Klucel (hydroxypropylcellulose) (HPC)): 150 % of control
- T/C [12]: 120 % of control
- T/C (dose: 250.0 mg/kg/injection, schedule: Q01DX009 (ip), vehicle: Klucel (hydroxypropylcellulose) (HPC)): 166 % of control

SMILES: CCCCCCCCCCCCN1C(=O)[N+](C)(C)N=C1[O-]
- T/C [3]: 90 % of control
- T/C [4]: 90 % of control
- T/C [6]: 92 % of control

SMILES: c1cc2c3c(c1)ncn3CCC2
- T/C (dose: 25.0 mg/kg/injection, schedule: Q04DX003 (ip), vehicle: other): 100 % of control
- T/C (dose: 50.0 mg/kg/injection, schedule: Q04DX003 (ip), vehicle: other): 100 % of control
- T/C (dose: 100.0 mg/kg/injection, schedule: Q04DX003 (ip), vehicle: other): 95 % of control

SMILES: CCOC(=O)CS(=O)(=O)c1ccc(NC(C)=O)cc1
- T/C [11]: 104 % of control
- T/C [12]: 91 % of control and 120 % of control
- T/C [13]: 96 % of control and 115 % of control
- T/C [14]: 105 % of control

SMILES: N#CCCC1(CCC#N)c2ccccc2-c2ccccc21
- T/C [12]: 92 % of control
- T/C (dose: 100.0 mg/kg/injection, schedule: Q04DX003 (ip), vehicle: Klucel (hydroxypropylcellulose) (HPC)): 96 % of control
- T/C [13]: 92 % of control
- T/C (dose: 200.0 mg/kg/injection, schedule: Q04DX003 (ip), vehicle: Klucel (hydroxypropylcellulose) (HPC)): 112 % of control
- T/C [14]: 92 % of control
- T/C (dose: 400.0 mg/kg/injection, schedule: Q04DX003 (ip), vehicle: Klucel (hydroxypropylcellulose) (HPC)): 92 % of control

SMILES: Cc1cc(C)c2cc3cccc[n+]3cc2c1
- T/C (dose: 4.0 mg/kg/injection, schedule: Q01DX010 (ip), vehicle: carboxymethylcellulose (CMC)): 115 % of control

SMILES: O=C(NO)c1ccc(O)c(O)c1
- T/C (dose: 200.0 mg/kg/injection, schedule: Q01DX005 (ip), vehicle: water): 153 % of control
- T/C (dose: 400.0 mg/kg/injection, schedule: Q01DX005 (ip), vehicle: water): 166 % of control

SMILES: CCOC(=O)c1cc(N)c(N2CCCC2)cc1Cl
- T/C [7]: 100 % of control
- T/C (dose: 133.0 mg/kg/injection, schedule: Q04DX003 (ip), vehicle: saline with Tween-80): 89 % of control
- T/C [8]: 105 % of control
- T/C [9]: 94 % of control
- T/C (dose: 400.0 mg/kg/injection, schedule: Q04DX003 (ip), vehicle: saline with Tween-80): 100 % of control
